{"source": "patent US20200360305A1", "about": "(INSERM (Institut National de la Ssnté et de la Researche …, priority 2017, published 2020)", "key": {"[1]": {"settings": "Dahl salt-sensitive rats, high-salt diet, oral supplementation; cited from earlier work"}, "[2]": {"settings": "old mice; cited from earlier work"}, "[3]": {"settings": "old mice; cited from earlier work", "remark": "listed apart in the source"}, "[4]": {"system": "polyamine and acetyl coenzyme A metabolism", "test": "Metabolomics analysis of tissues (polyamines, acetyl CoA, TETA metabolites)", "type": "in vivo, mouse", "settings": "for Acetyl coenzyme A (CoA) levels: liver (FIG. 7C); for Acetyl coenzyme A (CoA) levels / Ratio of N1-acetylspermidine over spermidine (polyamine catabolism): mice upon HFD regimen; for Ratio of N1-acetylspermidine over spermidine (polyamine catabolism): liver, heart or muscle (FIG. 7B)", "description": "Metabolomics analysis. All standard and reagents used were from Sigma Aldrich except Ammonium carbonate (VWR). For sample preparation, about 30 mg of tissues for each condition were first weighted and solubilized into 1.5 mL polypropylene microcentrifuge tubes with ceramic beads with 1 mL of cold lysate buffer (MeOH/Water/Chloroform, 9/1/1, −20° C.). They were then homogenized three times for 20 s at 5500 rpm using a Precellys 24 tissue homogenator (Bertin Technologies, Montigny-le-Bretonneux, France), followed by a centrifugation (10 min at 15000 g, 4° C.). […] The LC-MS dried extracts were solubilized with 450 μL of MilliQ water and aliquoted in 3 microcentrifuge tubes (100 μL) for each LC method and one microcentrifuge tube for safety. Aliquots for analysis were transferred in LC vials and injected into LC/MS or kept at −80° C. until injection. For sample preparation of polyamines, about 30 mg of tissues for each condition were first weighted and solubilized into 1.5 mL polypropylene microcentrifuge tubes, with 1 mL of cold lysate buffer with 1% sulfosalicylic acid (MeOH /water 1% SSA, 9/1, −20° C.). They were then homogenized three times for 20 s at 5500 rpm using Precellys 24 tissue homogenator (Bertin Technologies, Montigny-le-Bretonneux, France), followed by a centrifugation (10 min at 15000 g, 4° C.). 600 μL of the upper phase of the supernatant was collected and evaporated in microcentrifuge tubes at 40° C. in a pneumatically assisted concentrator (Techne DB3, Staffordshire, UK). The LC-MS dried extracts were solubilized with 300 μL of MilliQ water, centrifugated (10 min at 15000 g, 4° C.), and 50 μL were transferred in polypropylene vial injection for LC method and the rest was transferred in microcentrifuge tube for safety. Aliquots transferred in polypropylene vials were injected into LC/MS or kept at −80° C. until injection. Targeted analysis of CoAs and nucleoside phosphates by ion pairing ultrahigh performance liquid chromatography (UHPLC) coupled to a Triple Quadrupole (QQQ) mass spectrometer was performed on a RRLC 1260 system (Agilent Technologies, Waldbronn, Germany) coupled to a Triple Quadrupole 6410 (Agilent Technologies) equipped with an electrospray source operating in positive mode. The gas temperature was set to 350° C. with a gas flow of 12 L/min. The capillary voltage was set to 3.5 kV.\n10 μL of sample were injected on a Column XDB-C18 (100 mm×2.1 mm particle size 1.8 μm) from Agilent technologies, protected by a guard column XDB-C18 (5 mm×2.1 mm particle size 1.8 μm) and heated at 40° C. by a pelletier oven.\nThe gradient mobile phase consisted of water with 2 mM of DBAA (A) and acetonitrile (B). The flow rate was set to 0.2 mL/min, and gradient as follow: initial condition was 90% phase A and 10% phase B, maintained during 4 min. Molecules were then eluted using a gradient from 10% to 95% phase B over 3 min."}, "[5]": {"settings": "cited from earlier work"}, "[6]": {"settings": "in vivo; cited from earlier work"}, "[7]": {"system": "invertebrate model organisms", "settings": "spermidine supplementation; cited from earlier work"}, "[8]": {"settings": "mice, spermidine supplementation; cited from earlier work"}, "[9]": {"settings": "mice on a high fat diet; cited from earlier work"}, "[10]": {"settings": "ApoE-/- mice fed a high-fat diet for 20 weeks; cited from earlier work"}, "Drosophila": {"system": "Drosophila", "settings": "cited from earlier work"}, "[11]": {"settings": "mice; cited from earlier work"}, "[12]": {"settings": "mice, model of normal tension glaucoma; cited from earlier work"}, "[13]": {"settings": "HFD mice, TETA 8 weeks", "protocol": "Plasma cytokine measurements. Plasma was harvested from blood collection tubes by centrifugation at 15,000 rpm for 30 min, and stored at −80° C. Cytokines and levels were measured using a mouse serum adipokine immunoassay kit according to the protocol provided by the manufacturer (Cat. # MMHMAG-44K, EMD Millipore, Temecula, Calif., USA)."}, "[14]": {"settings": "patients, long-term (decades) administration; cited from earlier work"}, "[15]": {"system": "N-e-acetylated Lysine residues of proteins", "test": "Quantitative analysis of protein acetylation in tissues (immunofluorescence)", "settings": "mice"}, "[16]": {"excerpt": "Mouse experiments Six-to 7-week-old male WT C57Bl/6 were obtained from Envigo, France. Mice were maintained in specific pathogen-free conditions in a temperature-controlled environment with 12-hr light/12-hr dark cycles and received food and water ad libitum. Animal experiments were in compliance with the EU Directive 63/2010 and protocols 2012_069 and APAFIS #5272-2016042112271931v2 were approved by Ethical Committee of the Gustave Roussy Campus and Cordeliers Research Centre respectively. For weight gain experiments, mice were fed high fat diet (#260HF, Safe, France) or were given 30% sucrose solution in tap water."}, "[17]": {"system": "autophagy (LC3-I to LC3-II conversion, p62/SQSTM1 degradation)", "settings": "oral administration (not shown)", "protocol": "Tissue processing for Immunoblotting. […] Tissue extracts were then centrifuged at 12,000 g at 4° C. and supernatants were collected. Protein concentration in the supernatants was evaluated by the bicinchoninic acid technique (#23225, BCA protein assay kit). Protein extracts were run on 4-12% Bis-Tris acrylamide gels (# NP0322, Thermo Fisher Scientific) and electrotransferred to […] polyvinylidene fluoride (PVDF) membranes (#1620177,Bio-Rad). […] Equal protein loading was monitored by probing membranes with a glyceraldeyde-3-phosphate dehydrogenase (GAPDH)-specific antibody (#2118, Cell Signaling Technology). Membranes were developed with suitable horseradish peroxidase conjugates followed by chemiluminescence-based detection with the Amersham ECL Prime (# RPN2232, GE Healthcare and the ImageQuant LAS 4000 software-assisted imager (GE Healthcare, Piscataway, N.J., USA). Quantification was performed by densitometry by means of Image J software. Autophagy was quantified through evaluation of LC3-II/GAPDH ratio and SQSTM1/GAPDH ratio in accordance to guidelines."}, "[18]": {"settings": "chronic TETA", "protocol": "Glucose and Insulin Tolerance Test. For glucose tolerance test (GTT) mice were fasted O/N for 16 hours. 2.5 g/kg/BW glucose solution in PBS was injected intraperitoneally and blood glucose levels was measured by means of glucometer in tail vein blood. Tail snipping was used to obtain blood. Before snips, the tail end was dipped into Bupivicaine (0.25%) for local anesthesia. For the insulin tolerance test (ITT), mice were starved for 4 hours and a solution of 0.75 U/kg/BW insulin was injected intraperitoneally. Blood glucose is measured at 30, 60, and 120 minutes after glucose or insulin injection."}, "[19]": {"settings": "mice with excessive weight gain, chronic TETA (not shown)"}, "[20]": {"settings": "mice with excessive weight gain (HFD, sucrose, ob/ob)"}}, "note": "“Also recorded” adds a separate entry of the source. Like-named read-outs stand apart in the source and are kept apart here.", "data": [{"smiles": "NCCCCNCCCN", "note": "[Spermidine, spermidine]", "values": [{"measurement": "Blood pressure", "setting": "[1]", "result": "reduced high blood pressure"}, {"measurement": "Transition to heart failure", "setting": "[1]", "result": "delayed the transition to heart failure"}, {"measurement": "Age-induced arterial stiffness", "setting": "[2]", "result": "reversed age-induced arterial stiffness"}, {"measurement": "Spatial learning and memory capabilities", "setting": "[3]", "result": "improves spatial learning and memory capabilities"}, {"measurement": "N1-acetylspermidine levels", "setting": "[4]; liver (FIG. 7A) and all mouse organs (data not shown)", "result": "increase in N1-acetylspermidine levels"}, {"measurement": "Acetyl coenzyme A (CoA) levels", "setting": "[4]", "result": "acetyl coenzyme A (AcCoA) depletion"}, {"measurement": "Acetyl coenzyme A (CoA) levels", "setting": "[4]; listed as spermidine", "result": "reduced acetyl coenzyme A (CoA) levels"}, {"measurement": "Ratio of N1-acetylspermidine over spermidine (polyamine catabolism)", "setting": "[4]", "result": "promote polyamine catabolism"}, {"measurement": "Ratio of N1-acetylspermidine over spermidine (polyamine catabolism)", "setting": "[4]; listed as spermidine", "result": "increased the ratio"}, {"measurement": "Spermidine level in organs", "setting": "[4]; mice, after spermidine administration", "result": "increase of this polyamine in most organs except plasma"}, {"measurement": "Cardiac aging", "setting": "[5]; aging mice, chronic administration", "result": "protects from cardiac aging"}, {"measurement": "Diastolic function, left ventricular elasticity, and mitochondrial function", "setting": "[5]; old mice", "result": "improves"}, {"measurement": "Anticancer immune response", "setting": "[6]", "result": "enhance the anticancer immune response"}, {"measurement": "Longevity", "setting": "[7]", "result": "extends the longevity"}, {"measurement": "Longevity", "setting": "[8]", "result": "extends the longevity"}, {"measurement": "Glucose tolerance", "setting": "[9]", "result": "improved"}, {"measurement": "Insulin sensitivity", "setting": "[9]", "result": "improved"}, {"measurement": "Weight gain", "setting": "[9]", "result": "reduced weigh gain"}, {"measurement": "Formation of atherosclerotic plaques", "setting": "[10]", "result": "alleviated the formation of atherosclerotic plaques"}, {"measurement": "Age-induced memory impairment", "setting": "Drosophila", "result": "protects from age-induced memory impairment"}, {"measurement": "Loss of locomotor activity", "setting": "Drosophila", "result": "protects from"}, {"measurement": "Signs of pathology in experimental autoimmune encephalomyelitis", "setting": "[11]", "result": "attenuates signs of pathology"}, {"measurement": "Retinal degeneration", "setting": "[12]", "result": "blunts retinal degeneration"}]}, {"smiles": "NCCNCCNCCN", "note": "[TETA, N,N′-Bis(2-aminoethyl)ethane-1,2-diamine]", "values": [{"measurement": "Plasma C-peptide", "setting": "[13]", "result": "prevented the HFD-induced elevation"}, {"measurement": "Plasma IGFBP1", "setting": "[13]", "result": "prevented the HFD-induced elevation"}, {"measurement": "Plasma adiponectin levels", "setting": "[13]", "result": "increased the adiponectin levels"}, {"measurement": "Plasma gastric inhibitory peptide (GIP)", "setting": "[13]", "result": "prevented the HFD-induced elevation"}, {"measurement": "Plasma insulin", "setting": "[13]", "result": "prevented the HFD-induced elevation"}, {"measurement": "Plasma leptin", "setting": "[13]", "result": "prevented the HFD-induced elevation"}, {"measurement": "Plasma plasminogen activator inhibitor-1 (PAI-1)", "setting": "[13]", "result": "prevented the HFD-induced elevation"}, {"measurement": "Plasma resistin", "setting": "[13]", "result": "prevented the HFD-induced elevation"}, {"measurement": "Side effects", "setting": "[14]", "result": "side effects are mild"}, {"measurement": "Protein acetylation in heart (cardiomyocytes)", "setting": "[15]", "result": "reduces protein acetylation; also recorded: reduction in protein acetylation"}, {"measurement": "Protein acetylation in liver (hepatocytes)", "setting": "[15]", "result": "reduces protein acetylation; also recorded: reduction in protein acetylation"}, {"measurement": "Accumulation of intestinal and perigonadal adipose tissue", "setting": "[16]; [19]", "result": "reduced accumulation of intestinal and perigonadal adipose tissue"}, {"measurement": "Fat accumulation in the liver", "setting": "[16]; [19]", "result": "reduced fat accumulation in the liver"}, {"measurement": "Weight gain", "setting": "[16]; normal mice on a high-fat diet, TETA in drinking water", "result": "reduced the accelerated weight gain"}, {"measurement": "Weight gain", "setting": "[16]; normal mice on a high-sucrose diet (30% sucrose in drinking water), TETA per os 100 mg/kg", "result": "reduced the accelerated weight gain"}, {"measurement": "Weight gain", "setting": "[16]; ob/ob mice", "result": "reduced the accelerated weight gain"}, {"measurement": "Weight gain", "setting": "[16]; wild type mice on standard chow, TETA in drinking water or by gavage", "result": "failed to affect the physiological weight gain"}, {"measurement": "Signs of autophagy in several mouse organs", "setting": "[17]", "result": "induced signs of autophagy"}, {"measurement": "Glucose tolerance test", "setting": "[18]; WT mice fed a normal diet", "result": "had no effect"}, {"measurement": "Insulin tolerance test", "setting": "[18]; WT mice fed a normal diet", "result": "had no effect"}, {"measurement": "Plasma glucose concentration after intraperitoneal glucose (GTT)", "setting": "[18]; [20]", "result": "reduced the plasma glucose concentration"}, {"measurement": "Transient decrease in glycemia after injection of insulin (ITT)", "setting": "[18]; [20]", "result": "enhanced the transient decrease in glycemia"}]}]}
